Assay results published in ChEMBL document CHEMBL5335860, “Imidazole Bioisostere Activators of Endopeptidase Neurolysin with Enhanced Potency and Metabolic Stability” (ACS Med Chem Lett, 2024).
The source made the active and inactive calls. The rule behind the calls is not given here. Peptide text beside a SMILES is read from it. * marks the point of attachment. NHPhenethyl = c1ccc(CCN*)cc1

Experiments:
[1] = target: T1, Neurolysin, mitochondrial (Homo sapiens, UniProt Q9BYT8); experiment: Activation of Nln (unknown origin) using Mca-Pro-Leu-Gly-Pro-D-Lys(DNP)- OH as substrate preincubated for 10 mins followed by substrate addition measured for 20 mins by fluorescence based assay
Target sequence in this assay (Q9BYT8 whole entry): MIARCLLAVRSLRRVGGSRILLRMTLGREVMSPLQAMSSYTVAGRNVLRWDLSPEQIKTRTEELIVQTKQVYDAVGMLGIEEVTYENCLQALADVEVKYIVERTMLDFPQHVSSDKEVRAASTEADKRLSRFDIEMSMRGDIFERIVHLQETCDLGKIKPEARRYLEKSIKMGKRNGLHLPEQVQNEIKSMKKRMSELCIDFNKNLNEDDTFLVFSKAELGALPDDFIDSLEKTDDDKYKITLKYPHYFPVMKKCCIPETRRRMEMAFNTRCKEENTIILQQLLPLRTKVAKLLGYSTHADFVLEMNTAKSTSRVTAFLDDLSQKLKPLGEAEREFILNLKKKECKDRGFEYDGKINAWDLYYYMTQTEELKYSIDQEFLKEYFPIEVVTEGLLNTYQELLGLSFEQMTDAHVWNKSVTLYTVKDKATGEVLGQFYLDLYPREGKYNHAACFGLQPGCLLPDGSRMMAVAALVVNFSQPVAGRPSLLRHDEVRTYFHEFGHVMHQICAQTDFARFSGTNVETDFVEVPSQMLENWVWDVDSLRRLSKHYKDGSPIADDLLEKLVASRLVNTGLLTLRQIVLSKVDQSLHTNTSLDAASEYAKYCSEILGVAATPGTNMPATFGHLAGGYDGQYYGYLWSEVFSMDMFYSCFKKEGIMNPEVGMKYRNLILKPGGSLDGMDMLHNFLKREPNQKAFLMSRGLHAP

[2] = target: T1, Neurolysin, mitochondrial; experiment: Activation of Nln (unknown origin) using Mca-Pro-Leu-Gly-Pro-D-Lys(DNP)- OH as substrate preincubated for 10 mins followed by substrate addition measured for 20 mins by fluorescence based assay relative to control; settings: filed as activator, time 30.0 min
Target sequence in this assay (Q9BYT8 38-704 limits assumed): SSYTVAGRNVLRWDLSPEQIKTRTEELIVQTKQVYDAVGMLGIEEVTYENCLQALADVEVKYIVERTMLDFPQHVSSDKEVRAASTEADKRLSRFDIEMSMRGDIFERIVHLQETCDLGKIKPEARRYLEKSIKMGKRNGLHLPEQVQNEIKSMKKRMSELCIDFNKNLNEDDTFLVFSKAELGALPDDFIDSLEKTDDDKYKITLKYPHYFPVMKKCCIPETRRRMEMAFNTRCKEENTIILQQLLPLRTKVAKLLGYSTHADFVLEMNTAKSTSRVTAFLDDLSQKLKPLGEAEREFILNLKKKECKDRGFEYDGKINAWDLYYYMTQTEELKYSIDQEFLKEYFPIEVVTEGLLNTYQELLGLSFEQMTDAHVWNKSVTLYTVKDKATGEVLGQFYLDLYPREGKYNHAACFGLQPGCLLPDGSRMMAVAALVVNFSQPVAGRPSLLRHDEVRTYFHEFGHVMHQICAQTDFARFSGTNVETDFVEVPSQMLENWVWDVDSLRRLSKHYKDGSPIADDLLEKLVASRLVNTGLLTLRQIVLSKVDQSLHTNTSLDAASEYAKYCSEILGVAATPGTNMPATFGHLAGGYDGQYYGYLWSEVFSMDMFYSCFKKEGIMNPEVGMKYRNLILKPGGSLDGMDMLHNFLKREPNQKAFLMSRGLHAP

[3] = Half life in mouse plasma at 500 ng/ml measured for 4 hrs by LC-MS/MS analysis; assay type: ADME, cell-free
[4] = Half life in mouse brain at 500 ng/ml measured for 4 hrs by LC-MS/MS analysis; assay type: ADME, tissue-based
[5] = Permeability coefficient in co-culture of primary mouse astrocytes and immortalized mouse endothelial cells at 10 ug/ml by BBB assay; assay type: ADME; settings: dose 10 µg/ml, read-out: Kp (converted)
[6] = Drug concentration in brain of MCAO mouse model at 4 mg/kg, iv measured after 30 mins; assay type: ADME, organism-based; settings: read-out: Ct
[7] = Elimination half life in MCAO mouse model at 4 mg/kg, iv; assay type: ADME, organism-based; settings: in vivo, read-out: beta t1/2
[8] = target: Angiotensin-converting enzyme (Homo sapiens) (UniProt P12821); experiment: Inhibition of C-terminal 10-His-tagged recombinant human ACE (30 to 1261 residues) expressed in mouse myeloma cells; settings: Multiple myeloma cell
[9] = target: Neprilysin (Homo sapiens) (UniProt P08473); experiment: Inhibition of N-terminal polyhis-tagged recombinant human neprilysin (52 to 750 residues) expressed in HEK293 cells; assay type: cell-based
[10] = target: Angiotensin-converting enzyme 2 (Homo sapiens) (UniProt Q9BYF1); experiment: Inhibition of C-terminal polyhis-tagged recombinant human ACE2 (1 to 740 residues) expressed in HEK293 cells; assay type: cell-based
[11] = target: Thimet oligopeptidase (Homo sapiens) (UniProt P52888); experiment: Inhibition of recombinant THOP1 (unknown origin)
[12] = target: Angiotensin-converting enzyme (Homo sapiens) (UniProt P12821); experiment: Inhibition of C-terminal 10-His-tagged recombinant human ACE (30 to 1261 residues) expressed in mouse myeloma cells relative to control; settings: concentration not given here
[13] = target: Thimet oligopeptidase (Homo sapiens) (UniProt P52888); experiment: Inhibition of recombinant THOP1 (unknown origin) relative to control; settings: concentration not given here
[14] = target: Neprilysin (Homo sapiens) (UniProt P08473); experiment: Inhibition of N-terminal polyhis-tagged recombinant human neprilysin (52 to 750 residues) expressed in HEK293 cells relative to control; assay type: cell-based; settings: concentration not given here
[15] = target: Angiotensin-converting enzyme 2 (Homo sapiens) (UniProt Q9BYF1); experiment: Inhibition of C-terminal polyhis-tagged recombinant human ACE2 (1 to 740 residues) expressed in HEK293 cells relative to control; assay type: cell-based; settings: concentration not given here

Chain of Thimet oligopeptidase (Homo sapiens) (P52888 whole entry, the tested form may be a part): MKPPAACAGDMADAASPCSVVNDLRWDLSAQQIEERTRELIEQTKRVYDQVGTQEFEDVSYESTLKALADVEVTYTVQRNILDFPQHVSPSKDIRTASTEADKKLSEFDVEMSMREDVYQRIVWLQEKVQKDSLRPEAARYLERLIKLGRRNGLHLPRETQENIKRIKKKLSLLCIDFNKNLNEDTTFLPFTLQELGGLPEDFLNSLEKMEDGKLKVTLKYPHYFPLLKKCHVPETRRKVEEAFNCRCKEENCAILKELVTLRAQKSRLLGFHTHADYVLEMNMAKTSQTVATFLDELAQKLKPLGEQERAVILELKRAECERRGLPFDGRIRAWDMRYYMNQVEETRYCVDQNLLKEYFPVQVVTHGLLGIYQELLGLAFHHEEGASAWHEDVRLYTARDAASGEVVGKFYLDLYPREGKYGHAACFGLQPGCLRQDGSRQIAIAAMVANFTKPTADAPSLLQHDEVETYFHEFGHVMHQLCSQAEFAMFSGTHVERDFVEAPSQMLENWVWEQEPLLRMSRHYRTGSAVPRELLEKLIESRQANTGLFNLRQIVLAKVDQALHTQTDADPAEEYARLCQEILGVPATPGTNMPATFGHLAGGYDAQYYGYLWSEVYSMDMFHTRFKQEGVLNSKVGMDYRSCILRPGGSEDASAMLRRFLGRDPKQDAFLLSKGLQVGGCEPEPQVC
Chain of Angiotensin-converting enzyme (Homo sapiens) (P12821 whole entry, the tested form may be a part): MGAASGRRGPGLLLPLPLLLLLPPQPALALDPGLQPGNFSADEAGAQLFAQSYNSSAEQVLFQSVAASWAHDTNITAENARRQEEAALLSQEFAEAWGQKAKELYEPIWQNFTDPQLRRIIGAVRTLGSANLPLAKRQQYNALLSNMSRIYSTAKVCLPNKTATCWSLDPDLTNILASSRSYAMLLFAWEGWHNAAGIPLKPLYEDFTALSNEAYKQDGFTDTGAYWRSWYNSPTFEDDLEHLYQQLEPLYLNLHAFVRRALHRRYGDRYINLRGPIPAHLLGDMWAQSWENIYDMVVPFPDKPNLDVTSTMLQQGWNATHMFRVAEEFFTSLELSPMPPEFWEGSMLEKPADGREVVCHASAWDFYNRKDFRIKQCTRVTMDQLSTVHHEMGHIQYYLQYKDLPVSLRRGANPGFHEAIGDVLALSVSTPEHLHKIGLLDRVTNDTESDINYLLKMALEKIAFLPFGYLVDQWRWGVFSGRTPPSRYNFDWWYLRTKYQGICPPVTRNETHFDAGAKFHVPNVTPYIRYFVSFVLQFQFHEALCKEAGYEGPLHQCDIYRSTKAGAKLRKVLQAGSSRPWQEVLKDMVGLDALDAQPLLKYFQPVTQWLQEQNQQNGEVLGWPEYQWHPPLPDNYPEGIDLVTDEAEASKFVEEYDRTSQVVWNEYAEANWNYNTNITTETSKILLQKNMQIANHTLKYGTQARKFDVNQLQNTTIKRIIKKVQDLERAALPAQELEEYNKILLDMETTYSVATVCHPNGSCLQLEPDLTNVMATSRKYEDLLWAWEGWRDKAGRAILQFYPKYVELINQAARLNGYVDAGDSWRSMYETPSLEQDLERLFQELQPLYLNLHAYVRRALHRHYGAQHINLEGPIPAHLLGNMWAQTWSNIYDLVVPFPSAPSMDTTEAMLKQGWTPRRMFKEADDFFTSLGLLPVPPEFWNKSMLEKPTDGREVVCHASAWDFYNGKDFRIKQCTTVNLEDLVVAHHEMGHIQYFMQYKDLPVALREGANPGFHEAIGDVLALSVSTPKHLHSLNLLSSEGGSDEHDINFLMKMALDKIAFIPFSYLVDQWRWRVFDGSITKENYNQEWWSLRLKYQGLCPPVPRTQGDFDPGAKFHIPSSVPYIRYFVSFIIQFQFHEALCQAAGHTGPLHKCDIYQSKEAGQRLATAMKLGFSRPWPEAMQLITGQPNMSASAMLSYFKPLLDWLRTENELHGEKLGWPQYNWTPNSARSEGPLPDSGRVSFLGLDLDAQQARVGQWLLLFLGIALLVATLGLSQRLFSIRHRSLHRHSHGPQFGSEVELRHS
Chain of Angiotensin-converting enzyme 2 (Homo sapiens) (Q9BYF1 18-805 limits assumed): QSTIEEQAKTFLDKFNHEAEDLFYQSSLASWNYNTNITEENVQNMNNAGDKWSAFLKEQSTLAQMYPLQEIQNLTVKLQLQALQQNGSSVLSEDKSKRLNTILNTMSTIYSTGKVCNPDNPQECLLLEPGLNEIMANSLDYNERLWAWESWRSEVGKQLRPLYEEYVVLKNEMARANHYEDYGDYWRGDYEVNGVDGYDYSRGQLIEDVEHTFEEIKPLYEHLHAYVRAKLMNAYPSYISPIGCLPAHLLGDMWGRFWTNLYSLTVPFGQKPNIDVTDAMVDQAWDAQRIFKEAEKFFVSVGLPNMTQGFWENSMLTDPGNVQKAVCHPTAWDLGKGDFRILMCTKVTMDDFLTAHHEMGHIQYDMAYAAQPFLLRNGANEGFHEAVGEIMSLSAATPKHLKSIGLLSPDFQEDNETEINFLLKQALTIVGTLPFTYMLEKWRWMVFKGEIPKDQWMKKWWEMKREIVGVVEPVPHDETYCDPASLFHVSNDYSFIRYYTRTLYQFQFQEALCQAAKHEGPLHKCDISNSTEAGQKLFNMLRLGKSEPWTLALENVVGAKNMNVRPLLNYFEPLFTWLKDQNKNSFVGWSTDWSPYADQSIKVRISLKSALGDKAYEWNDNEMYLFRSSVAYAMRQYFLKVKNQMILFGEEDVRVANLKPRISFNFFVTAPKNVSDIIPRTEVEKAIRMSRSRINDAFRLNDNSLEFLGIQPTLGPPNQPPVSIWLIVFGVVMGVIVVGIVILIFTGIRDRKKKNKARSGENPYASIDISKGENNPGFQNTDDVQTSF
Chain of Neprilysin (Homo sapiens) (P08473 whole entry, the tested form may be a part): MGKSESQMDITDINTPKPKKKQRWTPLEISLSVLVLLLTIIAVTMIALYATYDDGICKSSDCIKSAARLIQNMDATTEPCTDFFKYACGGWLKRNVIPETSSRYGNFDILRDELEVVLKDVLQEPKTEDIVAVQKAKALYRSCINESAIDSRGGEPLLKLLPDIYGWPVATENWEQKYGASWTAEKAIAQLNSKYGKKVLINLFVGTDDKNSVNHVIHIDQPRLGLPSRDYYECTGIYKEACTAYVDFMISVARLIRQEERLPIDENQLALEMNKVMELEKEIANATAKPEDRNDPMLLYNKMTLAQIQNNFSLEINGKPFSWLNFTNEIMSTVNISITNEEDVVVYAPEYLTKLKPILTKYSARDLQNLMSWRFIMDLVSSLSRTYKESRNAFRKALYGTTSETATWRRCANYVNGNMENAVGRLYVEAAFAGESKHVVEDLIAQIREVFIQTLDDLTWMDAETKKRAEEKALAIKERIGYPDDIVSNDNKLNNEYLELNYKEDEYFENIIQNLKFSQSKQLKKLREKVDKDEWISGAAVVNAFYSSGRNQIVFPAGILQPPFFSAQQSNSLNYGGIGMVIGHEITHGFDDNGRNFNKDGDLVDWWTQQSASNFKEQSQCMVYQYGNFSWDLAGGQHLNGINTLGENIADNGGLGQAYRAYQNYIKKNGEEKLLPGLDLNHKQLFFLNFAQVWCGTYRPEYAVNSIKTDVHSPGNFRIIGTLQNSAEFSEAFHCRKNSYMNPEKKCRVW

Compound	EC50 ([1]; read-out: EC50) [µM]	Emax [2] [%]	also measured
N[C@@H](Cc1c[nH]cn1)C(=O)NCCc1ccc(Cl)cc1	25	404	–
N[C@@H](Cc1c[nH]cn1)C(=O)NCC(=O)c1ccc2ccccc2c1	–	–	EC50 [1]: Not Active
N[C@@H](Cc1c[nH]cn1)C(=O)NCCc1ccc(F)cc1	11.6	–	–
N[C@@H](Cc1c[nH]cn1)C(=O)N(CCc1c[nH]c2ccccc12)Cc1ccccc1	5.2	307	–
N[C@@H](Cc1c[nH]cn1)c1ncc(-c2ccc3ccccc3c2)[nH]1	5.5	268	–
N[C@@H](Cc1c[nH]cn1)C(=O)N[C@@H](Cc1ccccc1)C(=O)NCCc1ccccc1 (H-His-Phe-NHPhenethyl)	5.4	178	–
N[C@@H](Cc1c[nH]cn1)C(=O)NCc1cccc2ccccc12	–	264	half-life at 500 ng/ml [3]: > 16.7 h; half-life at 500 ng/ml [4]: 1.34 h; Papp at 10 ug/ml [5]: 18.3 ×10⁻⁶ cm/s
N[C@@H](Cc1c[nH]cn1)C(=O)Nc1cccc2cccnc12	7	–	concentration at 0.5 h [6]: 260 nM; half-life [7]: 0.5 h; Papp at 10 ug/ml [5]: 19 ×10⁻⁶ cm/s
N[C@H](Cc1c[nH]cn1)c1ncc(-c2ccc(Cl)cc2)[nH]1	2	282	inhibition [8]: inactive; inhibition [9]: inactive; inhibition [10]: inactive; half-life at 500 ng/ml [3]: 8.15 h; half-life at 500 ng/ml [4]: 1.81 h; inhibition [11]: inactive; Papp at 10 ug/ml [5]: 6 ×10⁻⁶ cm/s
CC(C)[C@H](NC(=O)[C@@H](N)Cc1c[nH]cn1)C(=O)NCc1cccc2ccccc12	–	–	EC50 [1]: Not Active
N[C@@H](Cc1c[nH]cn1)c1ncc(-c2ccc(Cl)cc2)[nH]1	2.9	318	–
N[C@H](Cc1c[nH]cn1)c1ncc(-c2ccc3ccccc3c2)[nH]1	6.8	138	–
N[C@@H](Cc1c[nH]cn1)C(=O)NCC(=O)c1ccc(Cl)cc1	33.7	130	–
N[C@@H](Cc1c[nH]cn1)c1ncc(-c2cccc3ccccc23)[nH]1	4.1	244	inhibition [12]: 20%; half-life at 500 ng/ml [3]: > 16.7 h; inhibition [13]: 20%; inhibition [14]: 20%; half-life at 500 ng/ml [4]: 1.77 h; inhibition [15]: 20%; Papp at 10 ug/ml [5]: 13.8 ×10⁻⁶ cm/s
N[C@@H](Cc1c[nH]cn1)C(=O)N1CCc2ccccc2C1	32.6	380	–
N[C@@H](Cc1c[nH]cn1)C(=O)N[C@@H](Cc1ccccc1)C(=O)NCc1cccc2ccccc12	–	–	EC50 [1]: Not Active

The next lines start with results.

EC50 ([1]; read-out: EC50) [µM]	Emax [2] [%]	Compound	also measured
252	467	N[C@@H](Cc1c[nH]cn1)C(=O)Nc1ccccc1	–
5.4	272	N[C@H](Cc1c[nH]cn1)C(=O)N1CCC(Cc2ccccc2F)CC1	–
3.4	279	N[C@@H](Cc1c[nH]cn1)C(=S)NCc1cccc2ccccc12	–
3.6	324	CN(Cc1cccc2ccccc12)C(=O)[C@H](N)Cc1c[nH]cn1	–
85.5	–	N[C@@H](Cc1c[nH]cn1)C(=O)N[C@@H](Cc1ccccc1)C(=O)O (H-His-Phe-OH)	half-life at 500 ng/ml [3]: 0.57 h; Papp at 10 ug/ml [5]: 1.17 ×10⁻⁶ cm/s
4.4	211	N[C@@H](Cc1c[nH]cn1)C(=O)NCc1ccc2ccccc2c1	–
3.8	345	CN(Cc1cccc2ccccc12)C(=O)[C@@H](N)Cc1c[nH]cn1	–
4.3	237	N[C@@H](Cc1c[nH]cn1)C(=O)N1CCC(Cc2ccccc2F)CC1	–
